{"source": "patent EP4473972A1", "about": "“COMBINATIONS COMPRISING AN ATR INHIBITOR WITH SYNERGISTIC EFFECT AGAINST GLIOMAS” (Eberhard-Karls-Universität Tübingen, priority 2023, dated 2024)", "key": {"LNZ308 cells [1]": {"system": "LNZ308 cells", "assay": "DigiWest Multiplex Protein Analysis", "assay_type": "cell-based, human", "conditions": "LNZ308, 72 h", "protocol": "(§1) After 72 h of AZD6738 treatment, the inventors detached and counted the cells and subsequently snap froze them in liquid nitrogen. For protein preparation, they kept the cells on ice and added 20-30 µL of lysis buffer (LDS Lysis Buffer (Life Technologies, Carlsbad, CA, USA), supplemented with reducing agent (Thermo Fisher Scientific, Waltham, MA, USA) and protease- (Roche Diagnostics GmbH, Mannheim, Germany) and phosphatase-inhibitor (Roche)). Proteins were denatured by heating to 95°C for 10 min before the lysates were transferred to QiaShredder Eppendorf tubes (Eppendorf, Hamburg, Germany). After centrifugation (16,000g, 5 min, RT), eluates were stored at -80°C until further use. Protein quantification was performed using in-gel staining. 1 µL of each original lysate was diluted 1:10 (v/v) in lysis buffer. The respective aliquots were denatured for 10 mins at 70°C and 10 µL were run in a NuPAGE 4-12% Bis-Tris precast gel (Thermo Fisher Scientific) according to the manufacturer's instructions. The gel was washed with water and proteins were stained with BlueBandit (VWR, Darmstadt, Germany) for 1 h. The gel was de-stained over night with ddH2O before detection on a LI-COR (LI-COR, Bad Homburg, Germany) instrument. Analysis and protein quantification was performed using ImageStudio.\n(§2) The DigiWest analysis was performed as described in the art. In brief, the inventors loaded 10 µg of cellular protein on an SDS-polyacrylamide gel and size-separated them using the commercial NuPAGE system (Life Technologies). Size-separated proteins were blotted onto a PVDF membrane and biotinylated on the membrane using NHS-PEG12-Biotin (50 µM) in PBST for 1 h. After drying of the membrane, the samples lanes were cut into 96 strips of 0.5 mm width using an automated cutting plotter (Silhouette America, West Orem, UT, USA) each corresponding to a defined molecular weight fraction. Each of the strips was placed in one well of a 96-well plate and 10 µl elution buffer (8 M urea, 1% Triton-X100 in 100 mM Tris-HCl pH 9.5) was added. The eluted proteins were diluted with 90 µl of dilution buffer (5% BSA in PBS, 0.02% sodium azide, 0.05% Tween-20) and each of the protein fractions was incubated with 1 distinct magnetic color-coded bead population (Luminex, Austin, USA) coated with neutravidin. The biotinylated proteins bind to the neutravidin beads such that each bead color represents proteins of one specific molecular weight fraction. All 96 protein loaded bead populations were mixed resulting in reconstitution of the original lane. Such a beadmix was sufficient for about 150 individual antibody incubations. Aliquots of the DigiWest bead-mixes (about 1/200th per well) were added to 96 well plates containing 50 µl assay buffer (Blocking Reagent for ELISA (Roche, Rotkreuz, Switzerland) supplemented with 0.2% milk powder, 0.05% Tween-20 and 0.02% sodium azide) and different diluted antibodies were added to the wells. After overnight incubation at 15°C in a shaker, the bead-mixes were washed twice with PBST and species-specific PE-labelled (Phycoerythrin) secondary antibodies (Dianova, Hamburg, Germany) were added and incubated for 1 hour at 23°C. Beads were washed twice prior to readout on a Luminex FlexMAP 3D.\n(§3) For quantification of the antibody specific signals, we used the DigiWest Analyzer software; it automatically identifies peaks of appropriate molecular weight and calculates the peak area. Signal intensity was normalized to the total amount of protein loaded onto one lane. The software package MEV 4.9.0 was used for statistical analysis along with Graph Pad Prism (Version 9.0.0). For all statistical tests, a p-value <0.05 was considered significant."}, "LN229 cells [2]": {"system": "LN229 cells", "assay": "DigiWest Multiplex Protein Analysis", "assay_type": "cell-based, human", "conditions": "LN229, 72 h", "protocol": "as §1, §2, §3"}, "[3]": {"system": "patient-derived glioblastoma microtumor models (PDM)", "assay": "Patient derived microtumors (PDM) viability, RealTime-Glo MT Cell Viability Assay", "assay_type": "cell-based", "conditions": "patient-derived microtumors (PDMs), 72 h", "protocol": "PDMs were extracted from surgically resected, residual glioblastoma tissue as is known to the skilled person. The inventors treated the PDMs with indicated drug concentrations for 72 h and determined cell viability using RealTime-Glo MT Cell Viability Assay (Promega, Madison, Wl, US). Luminescence assay signal was measured using a multimode microplate reader (Tecan, Männedorf, Switzerland). Obtained luminescence units were background corrected and plotted as dose response curves using GraphPad Prism 9 software. The use of residual tissue after tumor resections was approved by the ethical board of the University Hospital Tübingen."}, "[4]": {"system": "human and murine cell lines", "assay": "Anti-glioma activity in vitro (Figure 1 b)", "assay_type": "cell-based", "protocol": "The inventors seeded 5,000 or 10,000 cells, respectively, on day one, treated the next day in serum-free medium and incubated for up to 72 h. Subsequently, they measured cell viability using CellTiterBlue reagent (Promega, Madison, WI, US) according to manufacturer's instructions with a GloMax (Promega, Madison, Wl, US). The inventors normalized measurements to untreated cells. Cells were seeded the day before treatment. The inventors treated the cells in the indicated concentrations in serum-free medium for 24 h after which they changed the medium back to medium containing FCS, followed by a 7 to 21 day incubation time. The inventors used crystal violet (0.5% w/v) to stain colonies and analyzed the area coverage using the ImageJ software Plugln ColonyArea. Measurements were normalized to respective vehicle control wells."}, "LN229-GFP cells": {"system": "LN229-GFP cells", "assay": "Zebrafish embryo xenotransplant, tumor area", "assay_type": "in vivo, wildtype zebrafish embryos", "conditions": "monotherapy, 48 h of treatment; not significant as compared to the DMSO control", "protocol": "The inventors used zebrafish wildtype (wt) TE embryos younger than 5 days post-fertilization (dpf). […] Labelled cells were suspended in PBS at 2*10^5 cells/µL and approx. 1 nL cell suspension was injected into the midbrain region of 24 hpf embryos. The inventors incubated the embryos at 28°C for 1 h and afterwards divided them into treatment groups. Only successfully transplanted embryos were used for further experiments. Then, the inventors applied the treatments as indicated in the respective figures and incubated that for 48 h at 35°C. For evaluation of tumor size, they imaged embryos on a Nikon Stereomicroscope (SMZ18) with the NIS Element software. The inventors assessed the tumor surface areas using Imaris (version 9.2.0)."}, "LNZ308 cells [5]": {"system": "LNZ308 cells", "assay": "Cell cycle analysis (propidium iodide flow cytometry)", "assay_type": "cell-based, human", "conditions": "LNZ308, 72 h", "protocol": "(§4) The inventors seeded the cells on day one and treated them on the next day. After 72 h, they detached the cells and stained them with propidium iodide solution (50 µg/mL propidium iodide (Thermo Fisher Scientific, Waltham, MA, US), 0.2% Triton X-100 (Roth, Karlsruhe, Germany), 100 µg RNase (Thermo Fisher Scientific, Waltham, MA, US), 1 g/L glucose in PBS (phosphate buffered saline) (Gibco, Carlsbad, CA, US). Flow cytometry was done using a MACSQuant Analyzer 10 (Miltenyi Biotec, Bergisch Gladbach, Germany). The inventors analyzed the acquired data with the FlowJo software (Beckton, Dickinson & Company, Franklin Lakes, NJ, US)."}, "LN229 cells [6]": {"system": "LN229 cells", "assay": "Cell cycle analysis (propidium iodide flow cytometry)", "assay_type": "cell-based, human", "conditions": "LN229, 72 h", "protocol": "as §4"}, "GL261 cells": {"system": "GL261 cells", "assay": "Cell cycle analysis (propidium iodide flow cytometry)", "assay_type": "cell-based, murine", "conditions": "72 h", "protocol": "as §4"}}}
{"smiles": "C[C@@H]1COCCN1c1cc(C2([S@](C)(=N)=O)CC2)nc(-c2cc[nH]c3nccc2-3)n1", "note": "[AZD6738, ceralasertib]", "values": [{"measurement": "p16", "setting": "LNZ308 cells [1]", "value": "accumulation"}, {"measurement": "pCDK2 (Thr160) protein levels", "setting": "LNZ308 cells [1]", "value": "reduced"}, {"measurement": "CDC25C and pHistH3 (Ser10)", "setting": "LN229 cells [2]", "value": "downregulated"}, {"measurement": "Survivin (BIRC5)", "setting": "LN229 cells [2]", "value": "upregulated"}, {"measurement": "p53, p21 and Bax", "setting": "LN229 cells [2]", "value": "upregulation"}, {"measurement": "pAkt", "setting": "LN229 cells [2]", "value": "downregulation"}, {"measurement": "cell viability", "setting": "[3]", "value": "dose-dependent reduction"}, {"measurement": "anti-glioma activity in vitro", "setting": "[4]", "value": "significant anti-glioma activity"}, {"measurement": "tumor area", "setting": "LN229-GFP cells", "value": "modest decrease"}, {"measurement": "cell cycle alterations", "setting": "LNZ308 cells [5]", "value": "accumulation of LNZ308 cells in G2-M phase"}, {"measurement": "cell cycle alterations", "setting": "LN229 cells [6]", "value": "accumulation in S phase"}, {"measurement": "cell cycle alterations", "setting": "GL261 cells", "value": "accumulation in S phase"}]}
